According to ChEMBL document CHEMBL1129119, “N-Benzylated benzimidazol-2-one derivatives: activators of large-conductance Ca2+-dependent K+ channels” (1996):

assay: Tested for maxi-K channel opening property using two -electrode voltage clamp recording from Xenopus laevis oocytes at 20 uM; format: functional, frog, Oocyte

SMILES | Control current
O=c1[nH]c2cc(C(F)(F)F)ccc2n1Cc1cc(Cl)ccc1O | 133.4%
O=[N+]([O-])c1ccc2c(c1)nc(O)n2Cc1cc(Cl)ccc1O | 163.1%
Cc1ccc2c(c1)nc(O)n2Cc1cc(Cl)ccc1O | 101.9%
Oc1ccc(Cl)cc1Cn1c(O)nc2ccncc21 | 100.8%
Oc1ccc(Cl)cc1Cn1c(O)nc2cc(F)ccc21 | 105.9%
COc1ccc(Cl)cc1Cn1c(O)nc2ccccc21 | 104.2%
Oc1ccc(Cl)cc1Cn1c(O)nc2cc(I)ccc21 | 120.2%
Oc1ccc(Cl)cc1Cn1c(O)nc2ccc(Cl)cc21 | 116.3%
Oc1ccc(Cl)cc1Cn1c(O)nc2ccccc21 | 110.9%
Oc1ccc(Cl)cc1Cn1c(O)nc2cnccc21 | 107.2%
O=c1[nH]c2cc(C(F)(F)F)ccc2n1-c1cc(Cl)ccc1O | 131.8%
Oc1ccc2c(c1)nc(O)n2Cc1cc(Cl)ccc1O | 106%
Oc1ccc(Cl)cc1Cn1c(O)nc2ccc(Br)cc21 | 107.9%
Oc1ccc(Cl)cc1Cn1c(O)nc2cc(Cl)cc(Cl)c21 | 118.3%
Oc1ccc(Cl)cc1Cn1c(O)nc2cc(Cl)c(Cl)cc21 | 145.8%
Oc1ccc(Cl)cc1Cn1c(O)nc2cc(Br)ccc21 | 135.7%
Oc1ccc(Cl)cc1Cn1c(O)nc2cc(Cl)ccc21 | 150.1%
Oc1ccccc1Cn1c(O)nc2cc(C(F)(F)F)ccc21 | 126%
Oc1ccccc1CCn1c(O)nc2cc(C(F)(F)F)ccc21 | 119.5%
